Here are results for three molecules from patent publication US8252283B2, “Method for treating vascular disorders” (Cytotools GmbH, priority 1999, dated 2012).

For assay [1], the system named is HUVEC. Put plainly: Apoptosis rate after cone and plate shear pre-cultivation and transfer to static wells, DAPI staining (Examples 11, 12). It is filed as cell-based, human. The conditions noted are these: for Apoptosis rate (%) with EGTA and with peptides: 0.5 mM EGTA, RGD peptide 250 μg/ml + IAP peptide 400 μg/ml. The method, then: The cone and plate shear apparatus is first cleaned with a soft cloth and 70% ethanol, the cone is sterilized, and the apparatus is then stabilized at 37° C. in a heating cabinet for at least 30 min. The precultivated cells are washed with culture medium and provided with 0.06 ml/cm^2 fresh culture medium, and the culture dish is rapidly fitted into the cone and plate shear apparatus.
The cone is raised using the coarse adjustment, and the culture dish together with lid is carefully inserted into the holder provided therefor. The lid is taken off and the cone is lowered onto the culture dish and adjusted: the tip of a cone is then a minimal distance from the cell lawn and the cone moves round without abrading. The assembled cone and plate shear apparatus is placed in an incubator at 37° C., 5% (v/v) CO2 with a water vapor-saturated atmosphere for dynamic cultivation of the cells.
(§1) The culture supernatant is aspirated off of a Petri dish, and the cell lawn is fixed with 1 ml of formaldehyde solution on ice for 15 minutes, washed twice with 2 ml of PBS, treated with 0.5 ml of DAPI solution for 15 minutes, washed with PBS and evaluated under a fluorescence microscope. The UV filter set and a 20× or 40× objective are used. 500-1 000 cells are selected at random, and the cells with apoptotic nuclei are counted.
The culture dish is removed and divided into 12 independent culture wells (culture area of each well 0.8 cm^2) by putting in a suitable insert. Half of the culture is cultivated in culture medium with EGTA and the second half is cultivated in culture medium without EGTA. […] The apoptosis rate is determined by staining the apoptotic cells with DAPI.

Assay [2] has as its system human umbilical vein endothelial cells (HUVEC). Put plainly: Apoptosis rate of confluent endothelial cells in static culture, DAPI staining. It is filed as cell-based. To be noted: for Effect on the apoptosis rate (in words): substance(s) added to fresh medium. The method, then:
HUVEC are cultivated in gelatin-coated culture vessels at 37° C., 5% CO2 with a water vapor-saturated air atmosphere. The culture medium is changed every 2-3 days; at confluence, the cells are passaged with a division rate of from 1:3 to 1:5. HUVEC grow with strict contact inhibition and form monolayer cell lawns with a typical cobblestone morphology. At confluence, the cultures reach cell densities of 4-9×10^4 cells/cm^2. Only HUVEC cultures of passages 1-4 are used for apoptosis investigations.
as §1
The apoptosis index is calculated by the following formula: […]
(§2) After complete confluence is reached, the cells are employed for the test. Firstly, thrombospondin 1 is added in various concentrations (1-600 μg/ml) to fresh medium and compared with the effect of conditioned medium on the spontaneous apoptosis rate of HUVEC. […] The apoptosis rate is determined by staining apoptotic cells with DAPI.
The cells are seeded into the appropriate culture vessels (e.g. 24-well plate/0.5 ml per well) and employed for the test after complete confluence is reached. Investigations into the effect of various peptides and proteins (table 2) on the apoptosis rate of endothelial cells are carried out.
The cells are seeded in the appropriate culture vessels (e.g. 24-well plate/0.5 ml per well) and employed for the test after complete confluence is reached. […] The apoptotic cells and the total cell count are determined and the apoptosis index is calculated (percent of apoptotic cells). The data of 3 independent experiments are indicated in table 1, stating the mean and standard deviation.

The subject of assay [3] is perfused HUVEC. Put plainly: Apoptosis rate of endothelial cells in dynamic (perfusion) culture, DAPI staining. The assay is classed as cell-based, human. To be noted: for Effect on apoptosis (in words): perfusion culture. How it is done: as §1, §2
Assay [4] concerns HUVEC. Put plainly: Induced calcium influx into the cells, intracellular calcium indicator Fluo-3 AM. It is filed as cell-based, human. The conditions noted are these: static culture, measured at addition of substance. In general terms: Calcium assays in cells follow changes in intracellular calcium, usually with a dye or a luminescent sensor.
Procedure: Fluo-3 is a calcium indicator which forms a fluorescent complex after binding of Ca^2+. The ester Fluo-3 AM is taken up by the cells through diffusion. The calcium indicator Fluo 3 is produced only after hydrolysis of the ester in the cell. […] The measurement is carried out with normal fluorescein filters. At an excitation wavelength of 488 nm (500 nm), the emission maximum is at 525 nm and increases by a factor of 100 (200) through calcium binding.
Confluent HUVEC cell lawns in 24-well plates are washed three times with serum-free medium, incubated with preheated serum-free medium with Fluo-3 AM under culture conditions for 30 minutes and washed three times, and the plate is measured with a fluorimeter. First the sensitivity of the instrument is adjusted, and then fluorescence values corresponding to the instantaneous calcium level in the cell are recorded every 1-10 seconds. Substances can be added to the cells while the measurement is taking place. […] Assessment of the calcium level is possible with this method.
The influx of calcium into the cells can be employed as early indicator.
The test system can also be carried out with the calcium indicator Fluo-3 AM. […] The cells are employed for the test after complete confluence is reached. […] During the measurement, the substances b, c, e, f, g are added to the cells. […]
Setting [5] is: static, 48 h, substance(s) in fresh medium, TSP 1 μg/ml, RGD 250 μg/ml, CBD 400 μg/ml.

“Also recorded” adds a separate entry of the source.

For the molecule `O=C(O)CN(CCOCCOCCN(CC(=O)O)CC(=O)O)CC(=O)O` [EGTA], the “Apoptosis rate (%) with EGTA [2.5 mM]” value in assay [1] (0 hours) was 0.40 ± 0.22%; in assay [1] (2 hours), 0.42 ± 0.22%; in assay [1] (3 hours), 0.96 ± 0.27%; in assay [1] (4 hours), 1.56 ± 0.23%; in assay [1] (5 hours), 2.26 ± 0.35%. In addition, the “Apoptosis rate (%) with EGTA and with peptides” value stood at 0.45 ± 0.24% in assay [1] (0 hours), 1.00 ± 0.29% in assay [1] (2 hours), 0.65 ± 0.24% in assay [1] (3 hours) and 1.25 ± 0.33% in assay [1] (4 hours). The “Effect on the apoptosis rate (in words)” value in assay [1] (EGTA in culture medium with the active peptides) is “significant reduction in the apoptosis rate”; in assay [1] (culture medium with 2.5 mmol/l EGTA, static after shear apparatus), “significant reduction in the apoptosis rate”.

Take Thrombospondin 1 [TSP-1]: the “Apoptosis rate (%)” value was found to be 3.0 ± 0.4% in assay [2] (static culture, 24 h, substance alone (in fresh medium; TSP-1 1 μg/ml, antiserum 1:20, mAb 1:30)) and 6.9 ± 1.2% in assay [2] (setting [5]). The “Effect on the apoptosis rate (in words)” value in assay [2] (static culture) is listed as “increase in spontaneous apoptosis”; in assay [2] (static culture, listed as thrombospondin), “significant increase in the apoptosis rate”. Moreover, the “Apoptosis rate (%) after 24 h” value was 3.0 ± 0.4% in assay [2] (static culturing conditions, TSP-1 1 μg/ml) and <0.1% in assay [3] (dynamic culturing conditions, TSP-1 1 μg/ml). The “Apoptosis rate [%] (with SEM)” value in assay [2] (static, 48 hours, fresh medium + TSP-1 1 μg/ml alone) amounted to 7.3 ± 0.6%. Besides, the results for the “Effect on apoptosis (in words)” value in assay [3] and in assay [3] (listed as Thrombospondin) were “no effect on apoptosis” and “no effect on perfused HUVEC”, respectively. In assay [4], the “Effect on intracellular calcium level (in words)” value is “increase in the intracellular calcium level; also recorded: calcium influx into the cell”.

As for “cyclic Arg-Gly-Asp-(D-Phe)-Val peptide [active RGD]”, in assay [2] (static culture), the “Effect on the apoptosis rate (in words)” value was “no effect on the apoptosis rate”. Moreover, the “Apoptosis rate (%)” value in assay [2] (setting [5]) was determined as 1.2 ± 0.5%.
